Measured values from publication PMC12525431, “Hsp70 Peptides Induce TREM-1-Dependent and TREM-1-Independent Activation of Cytotoxic Lymphocytes” (International Journal of Molecular Sciences, 2025).
pKd: −log10 of the molar value. “Also recorded” adds a separate entry of the source. Where two headings read alike, the source gives them in different places. Ends that are not written are not given here.

Key:
[1] = biological target: T1, TREM-1 (Homo sapiens, UniProt Q9NP99); test: Microscale thermophoresis, binding to TREM-1; conditions: sTREM-1 labeled with Alexa Fluor 488, 30 min in the dark at room temperature, 16 concentrations by sequential dilution, Monolith NT 115, 8% IR laser power, at least three replicates
T1 construct: causes dissociation of the TREM-1 exocellular domain; made in house
T1 sequence (Q9NP99 21-205 limits assumed): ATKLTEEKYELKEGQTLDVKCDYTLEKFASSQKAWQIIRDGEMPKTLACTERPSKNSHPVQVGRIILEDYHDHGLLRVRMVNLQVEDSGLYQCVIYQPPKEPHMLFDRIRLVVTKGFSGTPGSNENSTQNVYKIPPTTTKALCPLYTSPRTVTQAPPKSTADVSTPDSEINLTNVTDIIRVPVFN
Description: The purified sTREM-1 protein was labeled using an Alexa FluorTM 488 Protein Labeling Kit (Life Technologies Corporation, Eugene, OR, USA) in accordance with the manufacturer’s protocol.
The N7 peptide and TKD (C = 200 nM for all) were incubated for 30 min in the dark at room temperature in 16 different concentrations obtained through sequential dilution, starting with the highest soluble concentration. The samples were transferred to glass capillaries (Monolith NT Capillaries, NanoTemper Technologies GmbH, München, Germany) and then analyzed using a Nano-Temperature Monolith NT 115 device (8% IR laser power). The signal quality was monitored using a NanoTemper Monolith device to detect possible autofluorescence of the ligand, aggregation, or changes in the photobleaching rate. The experiments were carried out in at least three replicates and processed using affinity analysis software (MO Control v.1.6.1, NanoTemper Technologies GmbH, München, Germany).

[2] = test system: K562 cells; test: Cytotoxicity of activated PBMC/lymphocytes against K562 cells (Cytotox 96); assay type: cell-based, human
Description: (§1) Human leukemic cell line K562 and THP-1 cell line were cultured in RPMI-1640 (Himedia Laboratories Private Limited, Maharashtra, India) and 10% FCS (Cytiva Livescience™, Marlborough, MA, USA). This cell line was obtained from the cell line collection of N. N. Blokhin National Medical Research Center of Oncology of the Ministry of Health of Russia. […] The cells were sorted using sets of magnetic beads for isolation of CD14+, CD16+, CD56+, CD8+, and CD4+ according to the manufacturer’s protocol (all were produced by Thermo Fisher Scientific, Waltham, MA, USA).
(§2) For cytotoxicity tests, cells of the K562 line were cultured in 96-well plates (Guangzhou Jet Bio-Filtration Co., Guangzhou, China) (6 × 10^4 per well) mixed with lymphocytes added at a 20:1 ratio and incubated at 37 °C in a 5% CO2 atmosphere for 3 to 24 h). In the inhibition assays, cells were pre-incubated for 1 h with the LP17 ([…]) (Thermo Fisher Scientific, Boston, MA, USA), abTREM1 (ABclonal, Woburn, MA, USA), anti-NKG2D, anti-granzyme B, caspase 3 inhibitor Ac-IEID-CHO, RIP1 kinase inhibitor necrostatin1, TLR4 inhibitor, anti-MicA, anti-FasL, anti-CD94 antibody (concentration was 20 μg/mL for all inhibitors and all from Thermo Fisher Scientific, Waltham, MA, USA) and then the lymphocytes were added.
(§3) Cytotoxicity was measured using a Cytotox 96 analysis kit (Promega, Madison, WI, USA) after 24 h of incubation in accordance with the manufacturer’s protocol.

[3] = biological target: T1, TREM-1; test: Interaction with / dependence on TREM-1 (judged from cytotoxicity blocking and binding experiments); assay type: cell-based; conditions: for effect on interaction of TREM-1 with its ligands: ligands N7 peptide, HMGB1, full-length Hsp70, judged from PBMC cytotoxicity
Description: as §1, §2, §3

[4] = test system: CD94 receptor; test: Interaction with CD94 receptor (judged from PBMC cytotoxicity); assay type: cell-based, human; conditions: concluded from cytotoxicity experiments
Description: as §1
For cytotoxicity tests, cells of the K562 line were cultured in 96-well plates (Guangzhou Jet Bio-Filtration Co., Guangzhou, China) (6 × 10^4 per well) mixed with lymphocytes added at a 20:1 ratio and incubated at 37 °C in a 5% CO2 atmosphere for 3 to 24 h). […]
as §3

[5] = test system: HLA-negative tumor cells; conditions: cited from earlier work
[6] = biological target: T1, TREM-1; conditions: cited from earlier work
[7] = test system: ICR mice; test: LPS-induced sepsis in mice, survival; assay type: in vivo; conditions: N7.1 120 µg per mouse i.v. 1 h after LPS
Description: Female ICR mice weighing 25 ± 1.1 g (7-week-old) were obtained from the Animal Breeding Facility of IBCh RAS (Bioresource Collection supported by the Ministry of Science and Higher Education of the Russian Federation, contract No. 075-15-2025-486). During the experiment, all mice were maintained in a specific pathogen-free (SPF) state under a strict light cycle (lights on at 07:00 h and off at 19:00 h), at 22 ± 2 °C and 50 ± 10% relative humidity. Animals were provided ad libitum access to a standard laboratory autoclavable rodent diet.
Twenty-one mice were used for the present study. The animals were randomly assigned to three groups with seven animals in each group: (1) control, intact animals; (2) intravenous injection of physiological saline (100 μL 0.9% NaCl) as a placebo during LPS-induced sepsis; (3) intravenous injection of peptide N7.1 (120 µg in 100 µL saline per mouse) during LPS-induced sepsis. LPS-induced sepsis was stimulated by an intraperitoneal injection of 0.6 mg lipopolysaccharides from Salmonella enterica Serotype Typhimurium (Sigma-Aldrich Co., St. Louis, MO, USA). Due to the small fluctuation in animal weight, weight-based dosing of LPS was not used. Drug treatment (saline or peptide N7.1) was carried out 1 h after LPS-induced sepsis.

[8] = 4th day of PBMC incubation with N7, magnetic separation, K562, n = 5
[9] = 6th day of PBMC incubation with N7, magnetic separation, K562, n = 5

## CC(C)C[C@H](NC(=O)[C@H](CC(C)C)NC(=O)[C@H](CC(N)=O)NC(=O)[C@H](CC(N)=O)NC(=O)[C@H](CC(=O)O)NC(=O)[C@H](CCCCN)NC(=O)[C@@H](N)[C@@H](C)O)C(=O)NCC(=O)N[C@@H](CCCNC(=N)N)C(=O)N[C@@H](Cc1ccccc1)C(=O)N[C@@H](CCC(=O)O)C(=O)N[C@@H](CC(C)C)C(=O)N[C@@H](CO)C(=O)NCC(=O)O [TKD]
[1]
  pKd: 5.52

## CN1C(=O)C(Cc2c[nH]c3ccccc23)NC1=S (centres unmarked) [inhibitor of RIP1 kinase, necrostatin1, reference compound]
[2]; CD8+ and CD4+ T lymphocytes activated by N7, 6 days, inhibitor pre-incubated 1 h (20 μg/mL), K562 3 or 24 h, n = 5
  effect of inhibitor on cytotoxic signal: prevent the induction of cytotoxic signal

## AMTKDNNLLGR [N9, 11-membered peptide from fraction No. 9; can be considered as a shortened TKD peptide]
[3]; concluded from LP17 blocking and binding experiments
  interaction with TREM-1: does not interact with the TREM-1 receptor
[2]; human PBMC ex vivo with peptide, K562 target cells
  lymphocyte populations activated: activates CD94+ NK cells
[4]
  interaction with CD94 receptor: interact with the CD94 receptor

## Ac-IEID-aldehyde [caspase 3 inhibitor, reference compound]
[2]; NK cells activated by N7, inhibitor pre-incubated 1 h (20 μg/mL), K562, n = 5
  effect of inhibitor on activity of NK cells: blocked

## Hsp70: recombinant human Hsp70, expressed in Escherichia coli M15
[5]
  activation of cytotoxic lymphocytes: activates TREM-1-dependent and TREM-1-independent cytotoxic lymphocytes that kill HLA-negative tumor cells
[6]; ref [19]
  TREM-1 ligand: ligand of the TREM-1 innate immunity receptor

## LQVTDSGLYRCVIYHPP [LP17, reference compound]
[6]; ref [24]
  TREM-1 signaling inhibition: TREM-1 signaling inhibitor

## PGLYRP1: innate immunity protein PGLYRP1, TREM-1 ligand
[6]; ref [30],[31],[32],[33]
  TREM-1 ligand: TREM-1 ligands

## SDNQPGVL [N7.1, N-terminal fragment of N7 peptide]
[3]
  effect on interaction of TREM-1 with its ligands: inhibits the interaction of TREM-1 with its ligands; also recorded: prevent interaction of the TREM-1 receptor with its ligands in vitro
[3]; listed as SDNQPGVL
  effect on interaction of TREM-1 with its ligands: competes with other ligands
[2]; PBMC pre-incubated with shortened peptide, then N7 peptide, HMGB1 or Hsp70 for 6 days, K562 24 h
  effect on lymphocyte activation by TREM-1 ligands: blocks the activation of lymphocytes by all the ligands studied
[7]; LPS-induced sepsis in mice
  effect in development of sepsis: protective effects in the development of sepsis in mice
[7]; female ICR mice, n = 7, 0.6 mg S. enterica LPS i.p., observed to 120 h, saline 29%
  surviving animals (survival rate): 86%

## SDNQPGVLIQVYEGEK [N7]
[2]; [8]
  cytotoxic activity of CD4+ T lymphocytes: activated
  cytotoxic activity of CD8+ T lymphocytes: No traces of cytotoxic activity
  cytotoxic activity of NK cells: reached their maximum activity
[2]; [9]
  cytotoxic activity of CD4+ T lymphocytes: remained
  cytotoxic activity of CD8+ T lymphocytes: appeared
  cytotoxic activity of NK cells: completely disappeared
[2]; PBMC 6 days with synthetic peptide (10^−9 M), MHC-negative K562 cells 24 h, n = 5
  induction of cytotoxic lymphocytes: cytotoxic lymphocytes appear in the population, killing MHC-negative K562 tumor cells

## actin
[6]; ref [30],[31],[32],[33]
  TREM-1 ligand: TREM-1 ligands
